Test results: article PMC7253423, “Quassinoid analogs with enhanced efficacy for treatment of hematologic malignancies target the PI3Kγ isoform” (Communications Biology, 2020)
Values joined by “and” are separate entries in the source; they are usually repeats but may differ in a detail not shown here. Equal entries are not always repeated. Where two headings read alike, the source gives them in different places.

How the values were obtained:
K562 cells [1] = experiment: Cell viability assay (CellTiter-Glo luminescence); type: cell-based, human; details: K562, 100nM, 72 hours
Description: (§1) 5000 cells as indicated were cultured in 96-well plate with 100 μl of media. […] After treatment, the cells were incubated with 100 μl buffer for 10 min at room temperature following the instructions of CellTiter-Glo kit (Promega, Madison, WI). Luminescence was detected using a multi-mode reader Cytation 5 (BioTek, Winooski, VT). […] Two independent experiments done in duplicates were performed.

Raji cells [2] = experiment: Cell viability assay (CellTiter-Glo luminescence); type: cell-based, human; details: for Cell viability (luminescence): duplicates
Description: as §1

SU-DHL-4 cells [3] = experiment: Cell viability assay (CellTiter-Glo luminescence); type: cell-based, human
Description: as §1

LCL1 cells [4] = experiment: Cell viability assay (CellTiter-Glo luminescence); type: cell-based, human; details: 72 h, duplicates
Description: After treatment, the cells were incubated with 100 μl buffer for 10 min at room temperature following the instructions of CellTiter-Glo kit (Promega, Madison, WI). Luminescence was detected using a multi-mode reader Cytation 5 (BioTek, Winooski, VT). […] Two independent experiments done in duplicates were performed.

[5] = system: hematologic malignancies derived cell lines; experiment: Cell viability assay, panel of hematologic malignancy derived cell lines; type: cell-based, human; details: 100 nM, 72 h, lymphoma, leukemia and multiple myeloma cell lines (13 cell lines for analogs)
Description: 5000 cells as indicated were cultured in 96-well plate with 100 μl of media. On the next day, Brusatol or associated analogs were added once to the cells without media change. After treatment, the cells were incubated with 100 μl buffer for 10 min at room temperature following the instructions of CellTiter-Glo kit (Promega, Madison, WI). Luminescence was detected using a multi-mode reader Cytation 5 (BioTek, Winooski, VT). […] Two independent experiments done in duplicates were performed.

PI3Kγ = molecular target: T1, PI3Kγ (Homo sapiens, UniProt P48736); experiment: Competitive binding pull-down assay in SU-DHL-4 cell lysates, western blot; details: SU-DHL-4 lysates, 51048 together with parent Brusatol
T1 construct: endogenous in cells; host or cells: SU-DHL-4 cells (lysate)
T1 sequence (P48736 whole entry): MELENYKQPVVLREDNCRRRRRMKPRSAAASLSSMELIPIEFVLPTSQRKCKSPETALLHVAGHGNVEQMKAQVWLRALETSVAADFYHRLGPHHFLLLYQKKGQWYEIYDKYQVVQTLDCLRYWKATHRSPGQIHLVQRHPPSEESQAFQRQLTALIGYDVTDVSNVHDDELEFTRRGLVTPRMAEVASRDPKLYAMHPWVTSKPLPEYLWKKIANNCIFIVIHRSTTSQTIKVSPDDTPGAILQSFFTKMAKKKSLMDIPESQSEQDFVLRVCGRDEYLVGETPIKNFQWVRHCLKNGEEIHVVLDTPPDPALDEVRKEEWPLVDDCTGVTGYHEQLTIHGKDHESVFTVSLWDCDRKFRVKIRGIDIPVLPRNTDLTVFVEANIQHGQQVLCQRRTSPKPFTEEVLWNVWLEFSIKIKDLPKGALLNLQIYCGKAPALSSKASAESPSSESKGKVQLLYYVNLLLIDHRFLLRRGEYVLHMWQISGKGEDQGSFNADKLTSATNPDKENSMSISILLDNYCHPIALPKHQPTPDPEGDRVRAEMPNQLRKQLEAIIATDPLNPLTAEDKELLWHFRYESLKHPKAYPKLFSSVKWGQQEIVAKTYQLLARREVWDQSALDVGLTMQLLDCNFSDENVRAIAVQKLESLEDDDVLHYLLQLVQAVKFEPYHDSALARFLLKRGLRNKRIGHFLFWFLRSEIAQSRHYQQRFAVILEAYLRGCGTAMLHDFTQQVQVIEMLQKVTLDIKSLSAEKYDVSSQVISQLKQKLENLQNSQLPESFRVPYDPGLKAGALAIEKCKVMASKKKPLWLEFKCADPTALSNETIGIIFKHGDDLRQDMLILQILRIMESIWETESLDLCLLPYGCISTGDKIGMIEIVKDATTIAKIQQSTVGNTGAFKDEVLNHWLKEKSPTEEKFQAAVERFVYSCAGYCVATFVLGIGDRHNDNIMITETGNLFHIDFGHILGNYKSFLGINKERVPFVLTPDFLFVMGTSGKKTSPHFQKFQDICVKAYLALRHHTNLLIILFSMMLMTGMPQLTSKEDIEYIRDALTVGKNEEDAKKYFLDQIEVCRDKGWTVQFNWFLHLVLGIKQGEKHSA
Description: Thirty microgram of purified GST-tagged proteins were pre-cleared with Dynabeads M-280 Streptavidin (Invitrogen, Carlsbad, CA, USA). […] The complexes were harvested and washed with PBS. The collected beads were mixed with SDS loading buffer for further analysis.
(§2) Western blot analyses were performed as previously described. Briefly, total cell lysates were separated by SDS-PAGE gel and transferred to nitrocellulose membrane. The membranes were blocked with 5% non-fat milk, probed with specific antibodies, and visualized using the Odyssey scanner (LiCor Inc., Lincoln, NE).

LCL1 cells [6] = experiment: Real-time PCR, mRNA expression; type: cell-based, human
Description: (§3) Real-time PCR experiments were performed as previously described. The experiments were performed in triplicate.

Raji cells [7] = experiment: Real-time PCR, mRNA expression; type: cell-based, human
Description: as §3

HL-60 cells = experiment: Western blot of PI3K/AKT signaling proteins; type: cell-based, human; details: HL-60, 0, 50 nM, 100 nM; 0, 12 h, 24 h
Description: as §2

K562 cells [8] = experiment: Western blot of PI3K/AKT signaling proteins; type: cell-based, human; details: K562, 0, 50 nM, 100 nM; 0, 12 h, 24 h
Description: as §2

LCL1 cells [9] = experiment: Western blot of PI3K/AKT signaling proteins; type: cell-based, human; details: LCL1, Fig. 2i
Description: as §2

Raji cells [10] = experiment: Western blot of PI3K/AKT signaling proteins; type: cell-based, human
Description: as §2

SU-DHL-4 cells [11] = experiment: Western blot of PI3K/AKT signaling proteins; type: cell-based, human; details: SU-DHL-4, 0, 50 nM, 100 nM; 0, 12 h, 24 h
Description: as §2

MOLM14 xenografts = experiment: In vivo tumorigenic assay using xenografts, tumor size; design: species or system NOD/SCID mice; details: for tumor size (Fig 5d&5e), individual mice: MOLM14 xenograft
Description: Six-week-old male NOD.CB17-Prkdc^scid/J (NOD/SCID) mice (Jackson Labs, Bar Harbor, ME, USA) were used as the human-in-mouse xeno-transplantation model. MOLM14 cells (1 × 10^7 cells) were injected into the subcutaneous space on the left flank of the mice. […] Body weight and tumor size were monitored before every injection. After treatment for 2 weeks, the mice were euthanized by CO2 inhalation and the tumors were carefully excised. The tumor volume (mm^3) was measured and calculated using the formula (a × b × b)/2 (a, the largest diameter of two measurements; b, the smallest diameter of two measurements).

[12] = Cytotoxicity, cell viability assay in normal cells; type: cell-based; details: human, fraction of 0 μM control; for viability at 0.000244141 μM: Con. 0.000244141 μM; for viability at 0.015625 μM: Con. 0.015625 μM; for viability at 0.0625 μM: Con. 0.0625 μM; for viability at 1 μM: Con. 1 μM
Excerpt: Human peripheral blood mononuclear cells (PBMCs), normal T-cells and B-cells were provided by the University of Pennsylvania Human Immunology Core (HIC), and Patient-derived xenografts (PDXs) were obtained from Fox Chase Cancer Center (FCCC). These samples were from different unidentified and healthy donors with written, informed consent. All the procedures were approved by the Institutional Review Board (IRB) and conducted according to the declarations of Helsinki protocols.
as §1

[13] = Raji, 0, 50 nM, 100 nM, 0, 12 h, 24 h
[14] = B-cells, read-out: relative cell viability (Fig 6c), replicates
[15] = T-cells, read-out: relative cell viability (Fig 6b), replicates

Brusatol
killing (K562 cells [1]; experiment of Fig 3a): more than 90%
killing (K562 cells [1]; independent experiment of Fig 3b): approximately 50%
inhibition of viability (cells inhibited) (Raji cells [2]; 100 nM, 48 h post-treatment): more than 80%
Cell viability (luminescence) (Raji cells [2]; cell number 0, 100 nM, 72 h): 0.9927 and 1.007
Cell viability (luminescence) (Raji cells [2]; cell number 625, 100 nM, 72 h): 3.94 and 4.0527
Cell viability (luminescence) (Raji cells [2]; cell number 1250, 100 nM, 72 h): 7.303 and 7.093
Cell viability (luminescence) (Raji cells [2]; cell number 2500, 100 nM, 72 h): 8.911 and 8.321
Cell viability (luminescence) (Raji cells [2]; cell number 5000, 100 nM, 72 h): 13.6562 and 12.7698
Cell viability (luminescence) (Raji cells [2]; cell number 10000, 100 nM, 72 h): 11.8436 and 13.905
inhibition of viability (cells inhibited) (SU-DHL-4 cells [3]; SU-DHL-4, 100 nM, 48 h post-treatment): more than 80%
Cell viability (luminescence) (LCL1 cells [4]; LCL1, cell number 0, 100 nM): 0.8054 and 1.195
Cell viability (luminescence) (LCL1 cells [4]; LCL1, cell number 625, 100 nM): 1.142 and 1.405
Cell viability (luminescence) (LCL1 cells [4]; LCL1, cell number 1250, 100 nM): 2.424 and 2.078
Cell viability (luminescence) (LCL1 cells [4]; LCL1, cell number 2500, 100 nM): 3.232 and 2.818
Cell viability (luminescence) (LCL1 cells [4]; LCL1, cell number 5000, 100 nM): 3.613 and 2.736
Cell viability (luminescence) (LCL1 cells [4]; LCL1, cell number 10000, 100 nM): 4.594 and 3.987
inhibition of cell viability in panel of cell lines [5]: broad and potent inhibitory effects
binding of 51048 with PI3Kγ in the presence of competitor (PI3Kγ): reduced
mRNA levels of AKT1, ATF3, PIK3CG, and PIK3C2B (LCL1 cells [6]): downregulated
mRNA levels of AKT1, ATF3, PIK3CG, and PIK3C2B (Raji cells [7]): downregulated
protein expression of AKT1, GSK3, and mTOR (HL-60 cells): minimally affected
protein expression of AKT1, GSK3, and mTOR (K562 cells [8]): minimally affected
levels of AKT1 and GSK3 proteins (LCL1 cells [9]): decreased
protein expression of AKT1, GSK3, and mTOR (Raji cells [10]; [13]): substantially reduced
levels of AKT1 and GSK3 proteins (Raji cells [10]; Raji, Fig. 2h): decreased
protein expression of AKT1, GSK3, and mTOR (SU-DHL-4 cells [11]): substantially reduced
tumor size (Fig 5d&5e), individual mice (MOLM14 xenografts; 0d): 79.6409 and 170.904 and 81.1118 and 93.0315 and 105.314 and 98.3496
tumor size (Fig 5d&5e), individual mice (MOLM14 xenografts; 2d): 114.921 and 89.4339 and 85.1926 and 118.807 and 122.531 and 72.1684
tumor size (Fig 5d&5e), individual mice (MOLM14 xenografts; 4d): 71.6608 and 87.7482 and 91.4458 and 96.2719 and 66.2604 and 63.9219
tumor size (Fig 5d&5e), individual mice (MOLM14 xenografts; 6d): 86.9292 and 188.062 and 142.989 and 148.569 and 65.5816 and 390.002
tumor size (Fig 5d&5e), individual mice (MOLM14 xenografts; 8d): 191.246 and 199.336 and 280.113 and 250.93 and 138.38 and 152.733
tumor size (Fig 5d&5e), individual mice (MOLM14 xenografts; 10d): 255.462 and 401.539 and 386.529 and 187.744 and 278.266
tumor size (Fig 5d&5e), individual mice (MOLM14 xenografts; 12d): 394.032 and 649.634 and 755.109 and 281.476 and 493.005

COC(=O)C12OCC34C(CC5C(C)=C(OC(=O)CNC(=O)OC(C)(C)C)C(=O)CC5(C)C3C(O)C1O)OC(=O)C(OC(=O)C=C(C)C)C24 (stereo not drawn) [#15]
IC50 (Raji cells [2]; Homo sapiens, 72 h): 92.9 nM
viability at 0.00244141 µM (Raji cells [2]; Homo sapiens, read-out: relative cell viability (Fig 6f), replicates, Raji, Con. 0.00244141 μM, fraction of 0 μM control): 120%
viability at 0.0390625 µM (Raji cells [2]; Homo sapiens, read-out: relative cell viability (Fig 6f), replicates, Raji, Con. 0.0390625 μM, fraction of 0 μM control): 63.6%
viability at 0.15625 µM (Raji cells [2]; Homo sapiens, read-out: relative cell viability (Fig 6f), replicates, Raji, Con. 0.15625 μM, fraction of 0 μM control): 25.8%
viability at 0.625 µM (Raji cells [2]; Homo sapiens, read-out: relative cell viability (Fig 6f), replicates, Raji, Con. 0.625 μM, fraction of 0 μM control): 10.3%
viability at 10 µM (Raji cells [2]; Homo sapiens, read-out: relative cell viability (Fig 6f), replicates, Raji, Con. 10 μM, fraction of 0 μM control): 5.59%
viability at 0.00244141 µM (SU-DHL-4 cells [3]; Homo sapiens, SU-DHL-4, 144 h, read-out: relative cell viability (Fig 6d), replicates, SU-DHL-4, Con. 0.00244141 μM, fraction of 0 μM control): 90.7%
viability at 0.0390625 µM (SU-DHL-4 cells [3]; Homo sapiens, SU-DHL-4, 144 h, read-out: relative cell viability (Fig 6d), replicates, SU-DHL-4, Con. 0.0390625 μM, fraction of 0 μM control): 35.2%
viability at 0.15625 µM (SU-DHL-4 cells [3]; Homo sapiens, SU-DHL-4, 144 h, read-out: relative cell viability (Fig 6d), replicates, SU-DHL-4, Con. 0.15625 μM, fraction of 0 μM control): 13.9%
viability at 0.625 µM (SU-DHL-4 cells [3]; Homo sapiens, SU-DHL-4, 144 h, read-out: relative cell viability (Fig 6d), replicates, SU-DHL-4, Con. 0.625 μM, fraction of 0 μM control): 7.7%
viability at 10 µM (SU-DHL-4 cells [3]; Homo sapiens, SU-DHL-4, 144 h, read-out: relative cell viability (Fig 6d), replicates, SU-DHL-4, Con. 10 μM, fraction of 0 μM control): 4.89%
viability at 0.000244141 μM [12, 14]: 80.4%
viability at 0.00390625 μM ([12]; B-cells, Con. 0.00390625 μM, read-out: relative cell viability (Fig 6c), replicates): 96.8%
viability at 0.015625 μM [12, 14]: 100%
viability at 0.0625 μM [12, 14]: 89.1%
viability at 1 μM [12, 14]: 91.6%
viability at 0.000244141 μM [12, 15]: 101%
viability at 0.015625 μM [12, 15]: 83.4%
viability at 0.0625 μM [12, 15]: 82.3%
viability at 1 μM [12, 15]: 83.3%
inhibition of cell viability in panel of cell lines [5]: significantly inhibit
suppression of AKT1, GSK3, and mTOR levels (Raji cells [10]; [13]): largely similar to Brusatol
tumor size, inhibitory response (MOLM14 xenografts; 2 mg/kg intraperitoneally three times per week, 2 weeks, vs PBS control): strong and rapid inhibitory response
tumor size (Fig 5d&5e), individual mice (MOLM14 xenografts; 0d): 78.7304 and 93.4671 and 63.7324 and 75.8678 and 67.9005 and 67.4325
tumor size (Fig 5d&5e), individual mice (MOLM14 xenografts; 2d): 74.0736 and 114.773 and 91.676 and 153.055 and 77.875 and 106.489
tumor size (Fig 5d&5e), individual mice (MOLM14 xenografts; 4d): 75.6994 and 102.99 and 96.7244 and 124.841 and 62.8883 and 83.9808
tumor size (Fig 5d&5e), individual mice (MOLM14 xenografts; 6d): 103.463 and 91.5117 and 52.853 and 252.562 and 146.711 and 106.359
tumor size (Fig 5d&5e), individual mice (MOLM14 xenografts; 8d): 91.2302 and 210.386 and 191.93 and 161.391 and 92.482 and 87.983
tumor size (Fig 5d&5e), individual mice (MOLM14 xenografts; 10d): 119.98 and 398.721 and 249.328 and 242.913 and 135.818 and 159.498
tumor size (Fig 5d&5e), individual mice (MOLM14 xenografts; 12d): 236.553 and 558.264 and 472.199 and 496.746 and 222.458 and 242.483
